The values below come from ChEMBL document CHEMBL6103575, “Design, synthesis and evaluation of (E)-1-(4-(2-(1H-pyrazol-5-yl)vinyl)phenyl) derivatives as next generation selective RET inhibitors overcoming RET solvent front mutations (G810C/R)” (Eur J Med Chem, 2025).

In series [1] the target is Platelet-derived growth factor receptor alpha (Homo sapiens, UniProt P16234). In words: Inhibition of PDGFRalpha (unknown origin).
The nature of series [2]: Induction of apoptosis in mouse BaF3 cells harboring CCDC6-RET G810C mutant assessed as early apoptotic cells at 100 nM incubated for 48 hrs by Annexin V-PE staining based flow cytometry analysis (Rvb =8.74%). The class given is functional. A general note: In flow cytometry, cells or beads pass a laser one at a time.
Series [3] in a line: Toxicity in SCID mouse implanted with mouse BaF3 cells assessed as change in body weight at 25 mg/kg, ip administered once daily for 10 days. Format: organism-based. Conditions: in vivo, 240 h, time 10 day.
A short description of series [4]: Induction of cell cycle arrest in mouse BaF3 cells harboring CCDC6-RET assessed as accumulation of cells at G0/G1 phase at 100 nM incubated for 24 hrs by propidium iodide staining based analysis (reference value: 52.51%). The class given is functional.
A short description of series [5]: Induction of cell cycle arrest in mouse BaF3 cells harboring CCDC6-RET G810C mutant assessed as accumulation of cells at S phase at 300 nM incubated for 24 hrs by propidium iodide staining based analysis (reference value: 12.47%). Format: functional.
Series [6] is described as follows: Induction of cell cycle arrest in mouse BaF3 cells harboring CCDC6-RET G810R mutant assessed as accumulation of cells at S phase at 100 nM incubated for 24 hrs by propidium iodide staining based analysis (reference value: 13.66%). Format: functional.
Series [7] can be described thus: Induction of apoptosis in mouse BaF3 cells harboring CCDC6-RET G810R mutant assessed as viable cells at 100 nM incubated for 48 hrs by Annexin V-PE staining based flow cytometry analysis (Rvb =86.40%). The class given is functional. Conditions: read-out: Activity.
Series [8] is described as follows: Induction of apoptosis in mouse BaF3 cells harboring CCDC6-RET G810C mutant assessed as early apoptotic cells at 300 nM incubated for 48 hrs by Annexin V-PE staining based flow cytometry analysis (Rvb =8.74%). Format: functional.
A further series has as its target T1, Ephrin type-B receptor 4 (Homo sapiens, UniProt P54760).
T1 sequence (P54760 whole entry): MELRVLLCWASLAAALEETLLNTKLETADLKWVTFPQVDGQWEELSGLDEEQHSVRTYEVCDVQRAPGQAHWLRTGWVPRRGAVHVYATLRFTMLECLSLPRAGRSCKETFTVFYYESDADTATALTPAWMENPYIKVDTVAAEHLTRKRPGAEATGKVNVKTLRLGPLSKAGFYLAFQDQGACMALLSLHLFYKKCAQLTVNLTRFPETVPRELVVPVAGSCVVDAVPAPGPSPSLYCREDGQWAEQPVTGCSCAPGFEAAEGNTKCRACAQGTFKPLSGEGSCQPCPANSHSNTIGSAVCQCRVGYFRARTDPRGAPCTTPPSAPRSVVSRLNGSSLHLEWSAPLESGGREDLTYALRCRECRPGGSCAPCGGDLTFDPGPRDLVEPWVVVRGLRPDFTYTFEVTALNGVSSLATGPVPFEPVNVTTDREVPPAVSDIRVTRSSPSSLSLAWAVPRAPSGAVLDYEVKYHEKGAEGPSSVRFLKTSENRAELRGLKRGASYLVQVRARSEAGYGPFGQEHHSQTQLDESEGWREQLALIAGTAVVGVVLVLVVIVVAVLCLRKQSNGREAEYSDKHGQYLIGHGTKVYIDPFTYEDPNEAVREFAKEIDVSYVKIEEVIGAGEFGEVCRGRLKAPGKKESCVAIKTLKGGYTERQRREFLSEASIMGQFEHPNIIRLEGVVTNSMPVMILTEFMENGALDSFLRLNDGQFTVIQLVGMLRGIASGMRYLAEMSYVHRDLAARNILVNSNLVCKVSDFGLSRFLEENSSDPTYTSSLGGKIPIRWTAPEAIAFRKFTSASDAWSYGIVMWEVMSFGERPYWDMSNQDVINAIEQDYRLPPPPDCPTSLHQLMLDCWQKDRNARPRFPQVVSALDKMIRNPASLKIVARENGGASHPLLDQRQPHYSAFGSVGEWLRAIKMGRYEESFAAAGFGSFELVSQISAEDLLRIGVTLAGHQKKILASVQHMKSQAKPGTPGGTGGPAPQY
In words: Inhibition of EPHB4 (unknown origin).

Series [9] in a line: Induction of apoptosis in mouse BaF3 cells harboring CCDC6-RET G810R mutant assessed as late apoptotic cells at 30 nM incubated for 48 hrs by Annexin V-PE staining based flow cytometry analysis (Rvb =3.21%). Format: functional.
Series [10] in a line: Induction of apoptosis in mouse BaF3 cells harboring CCDC6-RET G810R mutant assessed as necrotic cells at 30 nM incubated for 48 hrs by Annexin V-PE staining based flow cytometry analysis (Rvb =0.30%). The class given is functional.
Series [11] in a line: Induction of apoptosis in mouse BaF3 cells harboring CCDC6-RET G810C mutant assessed as late apoptotic cells at 30 nM incubated for 48 hrs by Annexin V-PE staining based flow cytometry analysis (Rvb =4.30%). The class given is functional.
Series [12] can be described thus: Induction of apoptosis in mouse BaF3 cells harboring CCDC6-RET G810C mutant assessed as early apoptotic cells at 30 nM incubated for 48 hrs by Annexin V-PE staining based flow cytometry analysis (Rvb =8.74%). The class given is functional.
The nature of series [13]: Induction of apoptosis in mouse BaF3 cells harboring CCDC6-RET assessed as viable cells at 30 nM incubated for 48 hrs by Annexin V-PE staining based flow cytometry analysis (Rvb =91.16%). The class given is functional. The note with it: read-out: Activity.
Series [14] is described as follows: Induction of apoptosis in mouse BaF3 cells harboring CCDC6-RET G810C mutant assessed as early apoptotic cells at 10 nM incubated for 48 hrs by Annexin V-PE staining based flow cytometry analysis (Rvb =8.74%). The class given is functional.
In series [15] the target is BDNF/NT-3 growth factors receptor (Homo sapiens, UniProt Q16620). In words: Inhibition of TRKB (unknown origin) at 1 uM relative to control.
Chain of BDNF/NT-3 growth factors receptor (Q16620 32-822 limits assumed): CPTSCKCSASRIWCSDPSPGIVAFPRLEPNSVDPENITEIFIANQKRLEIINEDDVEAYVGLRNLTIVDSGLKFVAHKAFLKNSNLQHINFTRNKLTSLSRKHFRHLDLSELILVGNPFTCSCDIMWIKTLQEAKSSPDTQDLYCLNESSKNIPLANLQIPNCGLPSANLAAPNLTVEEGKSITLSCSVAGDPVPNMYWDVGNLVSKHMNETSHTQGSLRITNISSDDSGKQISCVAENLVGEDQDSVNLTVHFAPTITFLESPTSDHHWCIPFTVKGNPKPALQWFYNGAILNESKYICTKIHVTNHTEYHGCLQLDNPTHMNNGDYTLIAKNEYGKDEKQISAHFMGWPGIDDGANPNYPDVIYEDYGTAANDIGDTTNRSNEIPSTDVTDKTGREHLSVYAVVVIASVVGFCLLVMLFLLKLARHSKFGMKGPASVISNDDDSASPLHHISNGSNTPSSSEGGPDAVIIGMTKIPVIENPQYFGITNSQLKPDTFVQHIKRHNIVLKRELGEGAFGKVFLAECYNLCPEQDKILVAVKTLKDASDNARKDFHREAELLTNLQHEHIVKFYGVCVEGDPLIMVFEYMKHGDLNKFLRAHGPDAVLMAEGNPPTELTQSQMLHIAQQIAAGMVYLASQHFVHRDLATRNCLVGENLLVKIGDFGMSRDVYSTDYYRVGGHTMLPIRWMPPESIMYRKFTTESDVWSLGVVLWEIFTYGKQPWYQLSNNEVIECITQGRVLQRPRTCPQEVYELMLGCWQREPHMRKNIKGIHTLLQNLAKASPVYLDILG
A further series addresses Ephrin type-A receptor 2 (Homo sapiens, UniProt P29317). In words: Inhibition of EPHA2 (unknown origin) at 1 uM relative to control.
Series [16] concerns BaF3. In words: Inhibition of RET phosphorylation in mouse BaF3 cells harboring CCDC6-RET G810R mutant incubated for 12 hrs by Western blotting analysis. Conditions: dose <= 300.0 nM. The class given is cell-based.
In series [17] the test system is BaF3. In words: Antiproliferative activity against mouse BaF3 cells harbouring CCDC6-RET V804M mutant assessed as inhibition of cell proliferation incubated for 72 hrs by CCK-8 assay. Format: functional, cell-based. The note with it: BaF3, 72 h. A general note: Tetrazolium dyes change colour on reduction, which living cells bring about.
Series [18] can be described thus: Induction of apoptosis in mouse BaF3 cells harboring CCDC6-RET assessed as necrotic cells at 300 nM incubated for 48 hrs by Annexin V-PE staining based flow cytometry analysis (Rvb =0.19%). The class given is functional.
Series [19] in a line: Induction of apoptosis in mouse BaF3 cells harboring CCDC6-RET G810R mutant assessed as late apoptotic cells at 10 nM incubated for 48 hrs by Annexin V-PE staining based flow cytometry analysis (Rvb =3.21%). The class given is functional.
The nature of series [20]: Induction of apoptosis in mouse BaF3 cells harboring CCDC6-RET assessed as early apoptotic cells at 10 nM incubated for 48 hrs by Annexin V-PE staining based flow cytometry analysis (Rvb =6.21%). The class given is functional.

pIC50: −log10 of the molar value.

Chain of Ephrin type-A receptor 2 (P29317 whole entry): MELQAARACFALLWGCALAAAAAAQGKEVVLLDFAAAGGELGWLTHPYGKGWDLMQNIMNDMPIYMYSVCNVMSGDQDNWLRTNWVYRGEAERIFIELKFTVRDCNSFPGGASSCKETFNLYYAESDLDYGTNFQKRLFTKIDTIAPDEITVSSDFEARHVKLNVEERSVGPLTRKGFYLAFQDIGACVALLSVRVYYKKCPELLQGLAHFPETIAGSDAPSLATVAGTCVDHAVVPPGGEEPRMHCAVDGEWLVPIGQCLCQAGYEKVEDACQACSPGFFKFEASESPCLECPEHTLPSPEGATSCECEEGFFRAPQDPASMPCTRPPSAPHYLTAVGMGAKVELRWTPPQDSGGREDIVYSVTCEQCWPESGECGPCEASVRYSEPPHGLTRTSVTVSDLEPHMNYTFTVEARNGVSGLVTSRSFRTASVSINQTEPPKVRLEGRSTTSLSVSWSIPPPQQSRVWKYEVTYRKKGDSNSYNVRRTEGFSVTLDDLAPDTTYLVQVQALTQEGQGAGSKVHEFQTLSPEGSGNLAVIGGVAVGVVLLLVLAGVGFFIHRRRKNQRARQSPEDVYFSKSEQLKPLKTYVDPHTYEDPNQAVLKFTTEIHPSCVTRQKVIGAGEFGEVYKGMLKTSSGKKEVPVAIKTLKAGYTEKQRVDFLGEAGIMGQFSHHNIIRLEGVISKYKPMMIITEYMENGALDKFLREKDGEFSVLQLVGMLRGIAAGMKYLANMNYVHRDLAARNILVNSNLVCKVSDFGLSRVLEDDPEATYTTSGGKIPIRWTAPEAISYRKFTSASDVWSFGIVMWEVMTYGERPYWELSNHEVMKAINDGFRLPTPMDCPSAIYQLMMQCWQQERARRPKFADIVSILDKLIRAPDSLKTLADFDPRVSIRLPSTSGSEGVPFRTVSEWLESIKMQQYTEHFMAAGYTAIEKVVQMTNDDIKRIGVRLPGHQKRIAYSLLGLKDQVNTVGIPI
Chain of Platelet-derived growth factor receptor alpha (P16234 whole entry): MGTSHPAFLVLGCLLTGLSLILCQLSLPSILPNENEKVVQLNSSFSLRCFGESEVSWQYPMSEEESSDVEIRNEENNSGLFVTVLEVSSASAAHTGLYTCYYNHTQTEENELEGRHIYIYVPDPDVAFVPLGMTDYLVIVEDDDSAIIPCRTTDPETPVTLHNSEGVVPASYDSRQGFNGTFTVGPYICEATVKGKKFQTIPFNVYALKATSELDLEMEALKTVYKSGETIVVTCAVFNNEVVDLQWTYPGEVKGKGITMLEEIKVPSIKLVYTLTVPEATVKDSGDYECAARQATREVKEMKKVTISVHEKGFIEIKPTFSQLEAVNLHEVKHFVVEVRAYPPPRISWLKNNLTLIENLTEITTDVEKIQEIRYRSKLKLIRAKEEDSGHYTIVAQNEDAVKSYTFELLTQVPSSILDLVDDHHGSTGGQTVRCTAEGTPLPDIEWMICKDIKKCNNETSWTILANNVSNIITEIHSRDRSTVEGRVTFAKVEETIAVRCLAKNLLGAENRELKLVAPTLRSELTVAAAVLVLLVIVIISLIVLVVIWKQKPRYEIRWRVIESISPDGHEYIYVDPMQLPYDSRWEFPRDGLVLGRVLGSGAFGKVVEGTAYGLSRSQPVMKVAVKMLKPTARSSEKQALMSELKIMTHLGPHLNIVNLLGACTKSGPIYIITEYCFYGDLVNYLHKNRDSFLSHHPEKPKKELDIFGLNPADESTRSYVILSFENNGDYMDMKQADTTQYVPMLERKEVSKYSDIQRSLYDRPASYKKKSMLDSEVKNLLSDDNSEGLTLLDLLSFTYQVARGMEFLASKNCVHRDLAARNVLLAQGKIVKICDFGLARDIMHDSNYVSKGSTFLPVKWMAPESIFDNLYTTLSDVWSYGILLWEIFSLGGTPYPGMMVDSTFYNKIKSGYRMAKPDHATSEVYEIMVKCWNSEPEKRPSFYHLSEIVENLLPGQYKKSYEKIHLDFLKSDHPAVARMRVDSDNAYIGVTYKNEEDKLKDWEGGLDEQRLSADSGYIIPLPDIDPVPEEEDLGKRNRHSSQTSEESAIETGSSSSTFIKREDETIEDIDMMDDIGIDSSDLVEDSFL

For `COc1cncc(-c2cn[nH]c2/C=C/c2ccc(NC(=O)Nc3cc(C(C)(C)C(F)(F)F)on3)c(Cl)c2)c1`, the negative logarithm of the IC50 (pIC50) in [1] was 7.76; on Ephrin type-B receptor 4, 7.44; in the series on BaF3 [17] it was 6.25. The Activity is reported as 37.84% in series [2]; “Non-toxic” in series [3]; 69.43% in series [4]; 4.14% in series [5]; 12.78% in series [6]; 91.44% in [8]. Besides, the Activity in [9] stood at 2.48%; in [10] it was 0.14%; in series [11] it was 3.57%; in series [12], 9.54%; in [14] it was 9.11%; in [18], 0.04%. For the same compound, the figures for the Activity in series [19] and in series [20] were 3.29% and 8.7%, respectively. Besides, the viability at 0.1 µM in series [7] is 74%. Moreover, the viability at 0.03 µM in series [13] is 76.8%. The inhibition in series [15] was 100%; against Ephrin type-A receptor 2, 100%; in the series with BaF3 [16], “Dose-dependent-effect”.

What is called pIC50 is the IC50 on a negative log10 scale, so that one unit is a factor of ten. One may read the inhibition as the share of the control response that was lost under treatment.
